Experimental data reported in US20020137929A1, “1 - (3-heterocyclylphenyl) isothiourea, -isourea, -guanidine and -amidine herbicidal agents” (Intellectual Property Department, BASF Aktiengesellschaft, priority 1998, published 2002).

Legend:
[1] = tested on: CHEAL (Lambsquarters, Common); test: Postemergence herbicidal evaluation; assay type: in vivo, Chenopodium album
Procedure, shortened: (§1)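 Visual 0–9 rating versus control (stand, vigor, malformation, size, chlorosis, overall appearance), taken four to five weeks post-spray. Two-week-old seedlings received roughly 0.0156–0.500 kg/ha active in acetone/water (50/50) with 0.5% TWEEN 20 via nozzle at 40 psi.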

CYPSE (Flatsedge) [2] = test: Postemergence weed control under flooded paddy conditions; assay type: in vivo, Cyperus serotinus; conditions: postemergence weeds, 3-4 weeks after treatment
Procedure, shortened: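 Herbicidal effect is judged by eye on a 0–9 scale versus control, 3–4 weeks after dosing. Dosing is into flood water kept 1.5–3 cm over the soil, at about 0.0313–0.500 kg/ha in aqueous/acetone 50/50 v/v, on 3–5 cm weeds and 1.5–2.5-leaf rice seedlings.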

CYPIR (Rice Flatsedge) = test: Preemergence weed control under flooded paddy conditions; assay type: in vivo, Cyperus iria; conditions: rated 3-4 weeks after treatment
Procedure, shortened: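 Herbicidal effect is scored visually on a 0-9 scale against an untreated control, three to four weeks after compounds are pipetted into the flood water (1.5 to 3 cm deep) over seeds planted in silt loam at 0.5 cm depth. Rates: about 0.0313 to 0.500 kg/ha.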

GALAP (Galium) [3] = test: Preemergence herbicidal evaluation; assay type: in vivo, Galium aparine; conditions: rated 4-5 weeks after treatment
Procedure, shortened: (§2)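 Sown cups got a single aqueous acetone spray of test compound (roughly 0.0156–0.500 kg/ha) before seedlings emerged. Evaluation, 4–5 weeks on, used a 0–9 visual scale covering plant stand, vigor, size, malformation, chlorosis and general appearance compared with controls.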

CASOB (Sicklepod) [4] = test: Preemergence herbicidal evaluation; assay type: in vivo, Cassia obtusifolia; conditions: rated 4-5 weeks after treatment
Procedure, shortened: as §2

ORYSAT (Rice, Tebonnet) = test: Postemergence herbicidal evaluation; assay type: in vivo, Oryza sativa, (L.) Tebonnet
Procedure, shortened: as §1

[5] = tested on: SAGPY (Arrowhead (Pygmaea)); test: Preemergence weed control under flooded paddy conditions; assay type: in vivo, Sagittaria pygmaea; conditions: rated 3-4 weeks after treatment
Procedure, shortened: (§3)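 First, seeds or propagules go into the top 0.5 cm of silt loam; next, water is held 1.5 to 3 cm over the soil; then compound (50/50 acetone/water) is pipetted into it at about 0.0313 to 0.500 kg/ha; finally plants are rated visually 0-9 after three to four weeks.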

[6] = tested on: GLXMAW (Soybean, Williams); test: Postemergence herbicidal evaluation; assay type: in vivo, Glycine max, (L.) Merr. cv Williams
Procedure, shortened: as §1

GALAP (Galium) [7] = test: Postemergence herbicidal evaluation; assay type: in vivo, Galium aparine
Procedure, shortened: as §1

AMBEL (Ragweed, Common) = test: Postemergence herbicidal evaluation; assay type: in vivo, Ambrosia artemisifolia
Procedure, shortened: as §1

SETVI (Foxtail, Green) = test: Postemergence herbicidal evaluation; assay type: in vivo, Setaria viridis
Procedure, shortened: as §1

CYPSE (Flatsedge) [8] = test: Preemergence weed control under flooded paddy conditions; assay type: in vivo, Cyperus serotinus; conditions: rated 3-4 weeks after treatment
Procedure, shortened: as §3

ECHCG (Barnyardgrass) = test: Postemergence herbicidal evaluation; assay type: in vivo, Echinochloa crus-galli
Procedure, shortened: as §1

CASOB (Sicklepod) [9] = test: Postemergence herbicidal evaluation; assay type: in vivo, Cassia obtusifolia
Procedure, shortened: as §1

ZEAMX (Corn, Field) = test: Preemergence herbicidal evaluation; assay type: in vivo, Zea mays; conditions: rated 4-5 weeks after treatment
Procedure, shortened: as §2

CCOC(=O)COc1ccccc1CC1S/C(=N/c2cc(-n3c(=O)cc(C(F)(F)F)n(C)c3=O)c(F)cc2Cl)N(CC(=O)OCC)C1=O (stereo not shown) [Compound 42, 2-{{2-Chloro-5-[3,6-dihydro-3-methyl-2,6-dioxo-4-(trifluoromethyl)-1(2H)-pyrimidinyl]-4-fluoro-phenyl}imino}-5-(o-hydroxybenzyl)-4-oxo-3-thiazolidineacetic acid, ethyl ester, ester with ethyl glycolate]
Postemergence herbicidal rating CHEAL ([1]; Rate 0.0158 kg/ha): 3.0
Postemergence herbicidal rating CHEAL ([1]; Rate 0.0315 kg/ha): 9.0
Postemergence herbicidal rating CHEAL ([1]; Rate 0.0630 kg/ha): 6.0
Herbicidal rating CYPSE (CYPSE (Flatsedge) [2]; rate 0.0313 kg/ha): 0.0
Herbicidal rating CYPSE (CYPSE (Flatsedge) [2]; rate 0.0625 kg/ha): 0.0
Herbicidal rating CYPSE (CYPSE (Flatsedge) [2]; rate 0.1250 kg/ha): 0.0
Herbicidal rating CYPSE (CYPSE (Flatsedge) [2]; rate 0.2500 kg/ha): 0.0
Herbicidal rating CYPIR (CYPIR (Rice Flatsedge); 0.0313 kg/ha): 0.0
Herbicidal rating CYPIR (CYPIR (Rice Flatsedge); 0.0625 kg/ha): 0.0
Herbicidal rating CYPIR (CYPIR (Rice Flatsedge); 0.1250 kg/ha): 0.0
Herbicidal rating CYPIR (CYPIR (Rice Flatsedge); 0.2500 kg/ha): 0.0
Preemergence herbicidal rating GALAP (GALAP (Galium) [3]; rate 0.0313 kg/ha): 0.0
Preemergence herbicidal rating GALAP (GALAP (Galium) [3]; rate 0.0625 kg/ha): 0.0
Preemergence herbicidal rating GALAP (GALAP (Galium) [3]; rate 0.1250 kg/ha): 0.0
Preemergence herbicidal rating GALAP (GALAP (Galium) [3]; rate 0.2500 kg/ha): 0.0
Preemergence herbicidal rating CASOB (CASOB (Sicklepod) [4]; rate 0.0313 kg/ha): 0.0
Preemergence herbicidal rating CASOB (CASOB (Sicklepod) [4]; rate 0.0625 kg/ha): 1.0
Preemergence herbicidal rating CASOB (CASOB (Sicklepod) [4]; rate 0.1250 kg/ha): 0.0
Preemergence herbicidal rating CASOB (CASOB (Sicklepod) [4]; rate 0.2500 kg/ha): 0.0
Postemergence herbicidal rating ORYSAT (ORYSAT (Rice, Tebonnet); Rate 0.0158 kg/ha): 2.5
Postemergence herbicidal rating ORYSAT (ORYSAT (Rice, Tebonnet); Rate 0.0315 kg/ha): 2.5
Postemergence herbicidal rating ORYSAT (ORYSAT (Rice, Tebonnet); Rate 0.0630 kg/ha): 3.0
Herbicidal rating SAGPY ([5]; 0.0313 kg/ha): 0.0
Herbicidal rating SAGPY ([5]; 0.0625 kg/ha): 0.0
Herbicidal rating SAGPY ([5]; 0.1250 kg/ha): 0.0
Herbicidal rating SAGPY ([5]; 0.2500 kg/ha): 3.0
Postemergence herbicidal rating GLXMAW ([6]; Rate 0.0158 kg/ha): 5.5
Postemergence herbicidal rating GLXMAW ([6]; Rate 0.0315 kg/ha): 6.0
Postemergence herbicidal rating GLXMAW ([6]; Rate 0.0630 kg/ha): 6.5
Postemergence herbicidal rating GALAP (GALAP (Galium) [7]; Rate 0.0158 kg/ha): 1.0
Postemergence herbicidal rating GALAP (GALAP (Galium) [7]; Rate 0.0315 kg/ha): 3.0
Postemergence herbicidal rating GALAP (GALAP (Galium) [7]; Rate 0.0630 kg/ha): 3.0
Postemergence herbicidal rating AMBEL (AMBEL (Ragweed, Common); Rate 0.0158 kg/ha): 9.0
Postemergence herbicidal rating AMBEL (AMBEL (Ragweed, Common); Rate 0.0315 kg/ha): 9.0
Postemergence herbicidal rating AMBEL (AMBEL (Ragweed, Common); Rate 0.0630 kg/ha): 9.0
Postemergence herbicidal rating SETVI (SETVI (Foxtail, Green); Rate 0.0158 kg/ha): 0.0
Postemergence herbicidal rating SETVI (SETVI (Foxtail, Green); Rate 0.0315 kg/ha): 1.0
Postemergence herbicidal rating SETVI (SETVI (Foxtail, Green); Rate 0.0630 kg/ha): 1.0
Herbicidal rating CYPSE (CYPSE (Flatsedge) [8]; 0.0313 kg/ha): 0.0
Herbicidal rating CYPSE (CYPSE (Flatsedge) [8]; 0.0625 kg/ha): 0.0
Herbicidal rating CYPSE (CYPSE (Flatsedge) [8]; 0.1250 kg/ha): 0.0
Herbicidal rating CYPSE (CYPSE (Flatsedge) [8]; 0.2500 kg/ha): 0.0
Postemergence herbicidal rating ECHCG (ECHCG (Barnyardgrass); Rate 0.0158 kg/ha): 1.0
Postemergence herbicidal rating ECHCG (ECHCG (Barnyardgrass); Rate 0.0315 kg/ha): 2.0
Postemergence herbicidal rating ECHCG (ECHCG (Barnyardgrass); Rate 0.0630 kg/ha): 4.0
Postemergence herbicidal rating CASOB (CASOB (Sicklepod) [9]; Rate 0.0158 kg/ha): 4.0
Postemergence herbicidal rating CASOB (CASOB (Sicklepod) [9]; Rate 0.0315 kg/ha): 3.0
Postemergence herbicidal rating CASOB (CASOB (Sicklepod) [9]; Rate 0.0630 kg/ha): 7.0
Preemergence herbicidal rating ZEAMX (ZEAMX (Corn, Field); rate 0.0313 kg/ha): 0.0
Preemergence herbicidal rating ZEAMX (ZEAMX (Corn, Field); rate 0.0625 kg/ha): 1.0
Preemergence herbicidal rating ZEAMX (ZEAMX (Corn, Field); rate 0.1250 kg/ha): 0.0
Preemergence herbicidal rating ZEAMX (ZEAMX (Corn, Field); rate 0.2500 kg/ha): 1.0
